Tests used:
[1] = biological target: T1, PD brain-derived a-syn aggregates (Homo sapiens, UniProt P37840); assay: Micro-radiobinding competition assay against Example-1 [^3H-1] (Table 8); format: binding; conditions: human PD brain-derived a-syn aggregates; for Competition at 100 nM (%): 100 nM non-radiolabelled example compound vs Example-1 [^3H-1] ligand; for Competition at 1 μM (%): 1 μM non-radiolabelled example compound vs Example-1 [^3H-1] ligand
T1 construct: from tissue; host or cells: human PD donor brain, sarkosyl-insoluble 100,000 x g pellet
Protocol: PD brain-derived a-syn aggregates were spotted onto microarray slides. The slides were incubated with the Example-1 [^3H-1] at 6 nM or 20 nM and the example compounds (non-radiolabelled) at 1 μM and 100 nM. In some cases, the non-radiolabelled example compounds were further assessed for a range of different concentrations, varying from 0.05 nM to 2 μM. After incubation, slides were washed and scanned by a real-time autoradiography system (BeaQuant, ai4R). Quantification of the signal was performed by using the Beamage image analysis software (ai4R). […] All measurements were performed with at least two technical replicates. For compounds tested in more than one experiment, the mean of the replicates or K; values in independent experiments is reported.
Results: Example compounds were assessed for their potency to compete with the binding of Example-1 [^3H-1] ligand to PD patient brain-derived a-syn aggregates. Results of the micro-radiobinding competition assay for the example compounds tested are shown in Table 8 as: % competition at 1 μM and 100 nM.

[2] = biological target: T1, PD brain-derived a-syn aggregates; assay: as above; format: binding; conditions: competition over Example-1 [^3H-1]

SMILES	Competition at 100 nM (%) [1] [%]	Competition at 1 μM (%) [1] [%]	Ki [2] [nM]
O=C1c2cn(-c3ccc(N4CC[C@H](F)C4)nc3)nc2CN1c1cccnc1 [Example 3]	45	89	57
O=C1c2cn(-c3ccc(N4CC[C@@H](F)C4)nc3)nc2CN1c1ccccn1 [Example 5]	68	98	26
O=C1c2cn(-c3ccc(N4CC[C@H](F)C4)nc3)nc2CN1c1ccccn1 [Example 6]	87	98	19
O=C1c2cn(-c3ccc(N4CC[C@@H](F)C4)nc3)nc2CN1c1cnccn1 [Example 7]	87	101	5
Cl.O=C1c2cn(-c3ccc(N4CC[C@H](F)C4)nc3)nc2CN1c1cnccn1 [Example 17]	68	100	21
O=C1c2cn(-c3ccc(N4CC[C@H](F)C4)nc3)nc2CN1c1ncccn1 [Example 18]	23	86	111
O=C1c2cn(-c3ccc(N4CC[C@H](F)C4)nc3)nc2CN1c1ccnnc1 [Example 19]	23	83	74
O=C1c2cn(-c3ccc(N4CC[C@@H](F)C4)nc3)nc2CN1c1ccnnc1 [Example 25]	64	94	68
Cn1cc(N2Cc3nn(-c4ccc(N5CC[C@@H](F)C5)nc4)cc3C2=O)cn1 [Example 26]	87	108	20
COc1ccc(N2Cc3nn(-c4ccc(N5CC[C@@H](F)C5)nc4)cc3C2=O)cc1 [Example 27]	87	99	13
O=C1c2cn(-c3ccc(N4CCC[C@@H](F)C4)nc3)nc2CN1c1cccnc1 [Example 40]	50	77	49
O=C1c2cn(-c3ccc(N4CC(F)C4)nc3)nc2CN1c1cccnc1 [Example 48]	42	77	132
Nc1ccc(N2Cc3nn(-c4ccc(N5CCCC5)nc4)cc3C2=O)cc1F [Example 50]	94	103	8
O=C1c2cn(-c3ccc(N4CC[C@H](F)C4)nc3)nc2CN1c1ccncc1 [Example 54]	71	88	19
O=C1c2cn(-c3ccc(N4CC[C@H](F)C4)nc3)nc2CN1c1ccc(F)cc1 [Example 64]	54	95	2
Cc1ccnc(N2Cc3nn(-c4ccc(N5CC[C@@H](F)C5)nc4)cc3C2=O)c1 [Example 80]	51	83	56
O=C1c2cn(-c3ccc(N4CC[C@@H](F)C4)nc3)nc2CN1c1ccc(O)nc1 [Example 81]	56	90	118
O=C1c2cn(-c3ccc(N4CC[C@@H](F)C4)nc3)nc2CN1c1cncc(F)c1 [Example 91]	44	84	42
Cc1c2c(nn1-c1ccc(N3CC[C@@H](F)C3)nc1)CN(c1ccccn1)C2=O [Example 95]	34	68	54
COc1cncc(N2Cc3nn(-c4ccc(N5CC[C@@H](F)C5)nc4)cc3C2=O)c1 [Example 97]	33	84	84
COc1cncc(N2Cc3nn(-c4ccc(N5CC[C@H](F)C5)nc4)cc3C2=O)c1 [Example 98]	38	76	89
O=C1c2cn(-c3ccc(N4CCCC4)nc3)nc2CN1c1cncc(F)c1 [Example 99]	56	92	82
O=C1c2cn(-c3ccc(N4CC[C@H](F)C4)nc3)nc2CN1c1ccc(O)nc1 [Example 101]	–	75	311
Cc1cncc(N2Cc3nn(-c4ccc(N5CC[C@@H](F)C5)nc4)cc3C2=O)c1 [Example 105]	57	83	149
Cc1cncc(N2Cc3nn(-c4ccc(N5CC[C@H](F)C5)nc4)cc3C2=O)c1 [Example 108]	54	81	182
O=C1c2cn(-c3ccc(N4CCCC4)nc3)nc2CN1c1ccncc1F [Example 113]	75	91	40

SMILES	Competition at 100 nM (%) [1] [%]	Competition at 1 μM (%) [1] [%]	Ki [2] [nM]
O=C1c2cn(-c3ccc(N4CCCC4)nc3)nc2CN1c1cncc(F)n1 [Example 139]	58	77	7
O=C1c2cn(-c3ccc(N4CCOCC4)nc3)nc2CN1c1cnc(F)cn1 [Example 142]	92	99	6
Cl.O=C1c2cn(-c3ccc(N4CCCC4)nc3)nc2CN1c1cnc(F)cn1 [Example 143]	80	91	8
O=C1c2cn(-c3ccc(C4CCCC4)nc3)nc2CN1c1cccc(F)n1 [Example 154]	81	99	–
N#Cc1ccc(-n2cc3c(n2)CN(c2cncc(F)n2)C3=O)cn1 [Example 155]	51	94	–
N#Cc1ccc(-n2cc3c(n2)CN(c2cccc(F)n2)C3=O)cn1 [Example 156]	80	85	–
CC(C)c1ccc(-n2cc3c(n2)CN(c2cccc(F)n2)C3=O)cn1 [Example 157]	21	43	–
CC(C)Oc1ccc(-n2cc3c(n2)CN(c2cncc(F)n2)C3=O)cn1 [Example 158]	19	54	–
COc1ccc(-n2cc3c(n2)CN(c2cccc(F)n2)C3=O)cn1 [Example 159]	46	67	–
CC(C)Oc1ccc(-n2cc3c(n2)CN(c2cccc(F)n2)C3=O)cn1 [Example 160]	51	73	–
O=C1c2cn(-c3ccc(C4CCCC4)nc3)nc2CN1c1cncc(F)n1 [Example 161]	42	65	–
O=C1c2cn(-c3ccc(N4CC[C@@H](F)C4)nc3)nc2CN1c1ccc(O)cn1 [Example 162]	92	110	–
O=C1c2cn(-c3ccc(N4CC[C@@H](F)C4)nc3)nc2CN1c1cccc(O)n1 [Example 164]	44	87	–
O=C1c2cn(-c3ccc(N4CC[C@H](F)C4)nc3)nc2CN1c1ccc(O)cn1 [Example 165]	88	107	–
O=C1c2cn(-c3ccc(N4CC[C@H](F)C4)nc3)nc2CN1c1cccnc1O [Example 168]	30	36	–
O=C1c2cn(-c3ccc(N4CC[C@H](F)C4)nc3)nc2CN1c1cc(O)ccn1 [Example 170]	65	102	–
O=C1c2cn(-c3ccc(N4CC[C@@H](F)C4)nc3)nc2CN1c1ccnc(O)c1 [Example 171]	48	–	–
O=C1c2cn(-c3ccc(N4CC[C@H](F)C4)nc3)nc2CN1c1ccnc(O)c1 [Example 172]	44	85	–
O=C1c2cn(-c3ccc(N4CC[C@H](F)C4)nc3)nc2CN1c1ccncc1O [Example 173]	12	54	–
O=C1c2cn(-c3ccc(N4CC[C@@H](F)C4)nc3)nc2CN1c1ccncc1O [Example 174]	46	64	–
O=C1c2cn(-c3ccc(N4CC[C@@H](F)C4)nc3)nc2CN1c1ccccc1O [Example 175]	32	65	–
O=C1c2cn(-c3ccc(N4CC[C@H](F)C4)nc3)nc2CN1c1ccccc1O [Example 176]	13	54	–
O=C1c2cn(-c3ccc(N4CC[C@@H](F)C4)nc3)nc2CN1c1cccc(O)c1 [Example 177]	76	100	–
O=C1c2cn(-c3ccc(N4CC[C@H](F)C4)nc3)nc2CN1c1cccc(O)c1 [Example 178]	77	103	–
O=C1c2cn(-c3ccc(N4CC[C@H](F)C4)nc3)nc2CN1c1ccc(O)cc1 [Example 179]	80	95	–
O=C1c2cn(-c3ccc(N4CC[C@@H](F)C4)nc3)nc2CN1c1ccc(O)cc1 [Example 180]	77	96	–
